The values that follow come from patent US9518038B2, “Condensation product of theanine derivative and carboxylic acid coumarin derivative, its intermediate, preparation method and use thereof” (SHANDONG YINGDONG YINGHAO BIOTECHNOLOGY, INC., priority 2012, dated 2016).

Each structure is given as a SMILES string.

For data set [1], the system named is human pancreatic cancer cells PANC-1. In words: MTT growth inhibition, PANC-1 cells. The data set is classed as cell-based. The conditions noted are these: 72 h after treatment, read-out: Drug concentration (IC50) at which 50% cancer cells survived. The text has this:
(§1) Cell lines and cell culture: human lung cancer cells A549 and H460, human breast cancer cells MCF-7 and MDA-MB-231, human gastric cancer cells BGC-823, human prostate cancer cells PC-3, human chronic leukemia cells K562, human lymphoma cells U937, human liver cancer cells SMMC7721 and HepG2, human colon cancer cells HT29, human pancreatic cancer cells PANC-1 and BxPC3, human cervical cancer Hela cell lines, human brain tumor cells Daoy, human neuroma cells D54 and human oral epidermoid cancer cells KBV200 line with strong drug resistance, mouse melanoma cells B16, and highly metastatic Lewis lung cancer cell lines were purchased from American Type Culture Collection of the U.S. These cells were cultured with DMEM and RPMI-1640 culture solutions separately.
(§2) The procedure was as follows:
(§3) (1) 0.25% trypsin was used to digest cancer cells in a logarithmic growth phase to prepare a single-cell suspension, the concentration of cells was adjusted to 5×10^4/mL, and the adjusted suspension was inoculated into a 96-well culture plate with 100 μl per well;
(§4) (2) The culture plate was transferred into a 37° C. incubator with a saturated humidity and 5% of CO2 and cultured for 24 h; the compounds and the intermediates thereof obtained in embodiments 1-7 and the compound as represented by formula (IIIa) or the positive control anti-cancer drug with the concentration of 1-1000 μM/L were added to enable the final concentration to be 0.1-1500 μM/L. Control wells (only added with 200 μl of cell suspension) and drug-free blank control wells (containing the solvent of 0.01% DMSO) were set, each group included 8 wells, and the plate was placed into the 37° C. incubator with saturated humidity and 5% of CO2 for culturing;
(§5) (3) The 96-well plate was taken out at 48 h and 72 h after dosing, the original culture medium was carefully removed by suction, 100 μl of serum-free DMEM culture medium and 10 μl of MTT (5 mg/mL) solution were added in each well. The plate was continuously cultured for another 4 h and then the culture was terminated;
(§6) (4) The supernatant in the wells was carefully removed by suction, each well was added with 150 μl of DMSO and shaked at room temperature for 10-15 min to fully dissolve crystals.
(§7) (5) Colorimetric analysis: the wavelength was selected as 570 nm, the light absorbance (A value) of each well was determined on the microplate reader and the results were recorded; the experiment was repeated for three times;
(§8) (6) the experimental results were calculated according to the following formula: relative survival rate=(A value of each experimental group/A value of cell control group)×100%
(§9) Calculation of median-effect concentration (IC50, namely the drug concentration at which the inhibition rate is 50%, also known as half inhibitory concentration):
(§10) IC50 of the detected component was calculated by using a regression equation.

The subject of a further data set is human neuroma cells D54. The data set can be described thus: MTT growth inhibition, D54 cells. The data set is classed as cell-based. The settings on record: Homo sapiens, 72 h after treatment, read-out: Drug concentration (IC50) at which 50% cancer cells survived.
Excerpt: as §1, §2, §3, §4, §5, §6, §7, §8, §9, §10

Data set [2] relates to human breast cancer cells MCF-7 xenograft. In words: In-vivo growth of MCF-7 xenografts in nude mice. Set-up: species or system BALB/c nude mice. The settings on record: Mus musculus, MCF7, ip, vs DMSO solvent control, read-out: Curative effect (inhibition rate %) of tumor weight; for inhibition in vivo at 60 mg/kg: 60 mg/kg intraperitoneal once a day; for inhibition in vivo at 90 mg/kg: 90 mg/kg intraperitoneal once a day. As for the experimental part: RPMI1640 and DMEM culture solutions: Hyclone Company; inactivated fetal bovine serum: Hyclone Company, preserved at −20° C.; trypsin: Amersco Company; and 0.4% trypan blue: Sigma Company;
(3) Observation of growth of tumors in nude mice: the activities (including food intake, traits of urine and stool, mental state and the like) of the nude mice and the tumor growth time and growth situation of the transplanted tumors were observed every day, the body weight and the size of the tumors were measured once every 2-3 days. The long diameter a and the short diameter b (mm) of each tumor were measured by a vernier caliper to calculate the volume, wherein the volume V=π1/2·ab^2 (mm^3);
(4) sacrifice of animals: the mice were anesthetized and photoed after treatment experiments; the nude mice were sacrificed by breaking neck, the tumor tissues were stripped under sterile conditions and the weight of the tumors was weighed; and the effects of the drugs on pathology and toxicity of the various organs and tissues were detected.

The nature of data set [3]: Fluorescent imaging in vivo and in vitro. The data set is classed as physicochemical. The conditions noted are these: 60 mg/kg body weight/0.2 ml. As for the experimental part: Fluorescent images and wavelength ranges of the compounds as obtained in embodiments 1-7 were determined according to the literature method (Chen Y, et al., 2-(3-{1-Carboxy-5-[(6-[18F]fluoro-pyridine-3-carbonyl)-amino]-pentyl}-ureido)-pentanedioic acid, [18F]DCFPyL, a PSMA-based PET imaging agent for prostate cancer. Clin Cancer Res, 2011, 17(24):7645-53), and the results were shown in Table 3 and FIG. 1.
2. Experimental procedure: For in-vitro fluorescent imaging and detection: the compounds Ia-Ih as obtained in embodiments 1-7 were prepared in 1.5 ml plastic centrifugal tubes into a solution with the concentration of 60 mg/0.2 ml, fluorescent signals and images were respectively detected and recorded with a multifunctional microplate reader and an animal in-vivo imaging instrument under the following excitation and emission wavelength conditions, and the obtained results were shown in Table 3 and FIG. 1 (small test tube photos); and for the detection of fluorescent images in-vivo: after 16 h of fasting treatment of the experimental animals (while drinking water was normally supplied), solutions of the compounds Ia-Ih as obtained in embodiments 1-7 were prepared according to a concentration of 60 mg/kg body weight/0.2 ml, and intraperitoneally administered to the animal, the fluorescent images were detected and recorded with the animal in-vivo imaging instrument under the following excitation and emission wavelength conditions, the obtained results were shown in FIG. 1 (animal in-vivo imaged photos); wherein, the experimental excitation wavelength range was 360 nm-590 nm; and the detection wavelength range was 410 nm-700 nm.

Another data set has as its system H-Ras. In words: Western Blotting, H-Ras level. The data set is classed as cell-based. The settings on record: human liver cancer cells, Lewis lung cancer cells and other cancer cell lines and tumor tissues, read-out: Effective concentration (IC50) for inhibition of H-Ras. The text has this:
Antibodies: primary antibodies of VEGFR, EGFR, c-Met, K-Ras, H-Ras, Akt, NF-κB, Cyclin D1, ER-alpha, Dvl-1, Dvl-2, Dvl-3, MMP-9, MMP2, β-catenin, Bcl-2, Bax, p53, p21, E-cadherin and Caspase3 protein, purchased from American Cell Signaling Technology Company and Santa Cruz Technology Company; and H3 acetylation, H4 acetylation and HDAC (HDAC3, HDAC4 and the like) Antibody Sample Kits, purchased from Cell Signaling Technology Company of the U.S.
(3) polyacrylamide gel electrophoresis (SDS-PAGE): an equal amount of protein lysate sample was used to separate protein, film transfer, and blocking, treated with appropriate primary antibodies and secondary antibodies in sequence, and the film was washed, then the color was developed with ECL kit, and a blot protein band was detected by exposure of an X-ray film; and a Gel-Pro Analyzer was used for quantitative analysis of gray degree, optical density value of the control group and the drug treatment group in various concentration were respectively compared with that of internal reference, the obtained ratios were respectively compared with the control group, and the protein expression level was semi-quantified.
In general terms: In western blotting, separated proteins are transferred to a membrane and probed.

`CCNC(=O)CC[C@H](N)C(=O)OC` [Compound IIa, theanine methyl ester]: the IC50 is 280 µM in data set [1] and 400 µM in the data set with human neuroma cells D54. Also, the inhibition in vivo at 60 mg/kg in data set [2] amounted to 39.8%. For the same molecule, the inhibition in vivo at 90 mg/kg in data set [2] was found to be 41.3%.

Turning to `CCNC(=O)CCC(NC(=O)c1cc2ccccc2oc1=O)C(=O)OCC` (stereo not shown) [Compound Ib, ethyl 5-ethylamino-5-oxo-2-(2-oxo-2H-benzopyran-3-carboxamido)pentanoate], the IC50 in data set [1] is 65 µM. In the data set on human neuroma cells D54, the IC50 came out at 165 µM. Further, in data set [2], the inhibition in vivo at 60 mg/kg was 52.6% and the inhibition in vivo at 90 mg/kg was found to be 63.8%. Besides, in data set [3], the “Emission (fluorescent wavelength range detectable in vivo and in vitro)” value (from here on “Emission”) was 430-650 nm; the “Excitation (fluorescent wavelength range detectable in vivo and in vitro)” value (shortened to “Excitation”) was 360-610 nm. The IC50 with H-Ras is under 75 µM.

`CCNC(=O)CCC(NC(=O)c1cc2cc(F)ccc2oc1=O)C(=O)OCC` (stereo in doubt) [Compound Ie, (R)-2-(6-F-2-oxo-2H-benzopyran-3-carboxamido)-5-ethylamino-5-oxo-pentanoic acid ethyl ester]: the IC50 in data set [1] is 72 µM. Further, the IC50 in the data set on human neuroma cells D54 came out at 150 µM. In data set [2], the inhibition in vivo at 60 mg/kg stood at 66.8% and the inhibition in vivo at 90 mg/kg turned out to be 69.8%. For the same molecule, in data set [3], the “Emission” value is 430-650 nm; the “Excitation” value is 360-610 nm. Moreover, the IC50 in the data set with H-Ras was under 60 µM.

As to `CCNC(=O)CC[C@@H](NC(=O)c1cc2cc(Br)cc(Br)c2oc1=O)C(=O)OCC` [Compound Ih, (R)-2-(6,8-dibromo-2-oxo-2H-benzopyran-3-carboxamido)-5-ethylamino-5-oxo-pentanoic ethyl ester], the IC50 in data set [1] came to 78 µM. Besides, in the data set with human neuroma cells D54, the IC50 is 87 µM. For the same molecule, in data set [2], the inhibition in vivo at 60 mg/kg stood at 58.9% and the inhibition in vivo at 90 mg/kg is 75.9%. In data set [3], the “Emission” value is 430-690 nm; the “Excitation” value was 360-610 nm. In addition, in the data set on H-Ras, the IC50 is under 65 µM.

For the molecule `CCNC(=O)CC[C@@H](NC(=O)c1cc2cc(Cl)cc(Cl)c2oc1=O)C(=O)OCC` [Compound Ig, (R)-2-(6,8-dichloro-2-oxo-2H-benzopyran-3-carboxamido)-5-ethylamino-5-oxo-pentanoic ethyl ester], the IC50 in data set [1] was 71 µM. Further, the IC50 in the data set with human neuroma cells D54 worked out at 79 µM. Further, in data set [2], the inhibition in vivo at 60 mg/kg was determined as 65.7% and the inhibition in vivo at 90 mg/kg worked out at 76.9%. Also, in data set [3], the “Emission” value is listed as 430-690 nm; the “Excitation” value was 360-610 nm. Moreover, the IC50 in the data set on H-Ras is under 65 µM.

For the molecule `CCNC(=O)CCC(NC(=O)c1cc2cc([N+](=O)[O-])ccc2oc1=O)C(=O)OCC` (stereo in doubt) [Compound If, (R)-2-(6-nitro-2-oxo-2H-benzopyran-3-carboxamido)-5-ethylamino-5-oxo-pentanoic acid ethyl ester], the figures for the IC50 (in data set [1]; in the data set on human neuroma cells D54; in the data set with H-Ras) were 77 µM, 105 µM and under 55 µM, respectively. The inhibition in vivo at 60 mg/kg in data set [2] worked out at 68.6%. In addition, in data set [2], the inhibition in vivo at 90 mg/kg turned out to be 72.6%. Also, in data set [3], the “Emission” value was 430-650 nm. In data set [3], the “Excitation” value is on record as 360-610 nm.

On to `CCNC(=O)CCC(NC(=O)c1cc2ccccc2oc1=O)C(=O)OC` (stereo not shown) [Compound Ia, methyl 5-ethylamino-5-oxo-2-(2-oxo-2H-benzopyran-3-carboxamido)pentanoate], for which the IC50 is 67 ± 30 µM in data set [1], 160 µM with human neuroma cells D54 and under 85 µM in the data set on H-Ras. The inhibition in vivo at 60 mg/kg in data set [2] was found to be 50.1%. Moreover, the inhibition in vivo at 90 mg/kg in data set [2] came to 61.3%. Moreover, the “Emission” value in data set [3] is recorded as 430-650 nm. In data set [3], the “Excitation” value is 360-610 nm.

Turning to `CCNC(=O)CC[C@@H](NC(=O)c1cc2cc(Cl)ccc2oc1=O)C(=O)OCC` [Compound Ic, (R)-2-(6-CI-2-oxo-2H-benzopyran-3-carboxamido)-5-ethylamino-5-oxo-pentanoic acid ethyl ester], the IC50 in data set [1] was found to be 54 µM. Further, the IC50 with human neuroma cells D54 is 98 µM. Besides, in data set [2], the inhibition in vivo at 60 mg/kg was determined as 58.6% and the inhibition in vivo at 90 mg/kg stood at 68.8%. In addition, in data set [3], the “Emission” value is listed as 430-670 nm; the “Excitation” value is 360-610 nm. In addition, the IC50 in the data set on H-Ras is under 65 µM.

Regarding `CCNC(=O)CC[C@H](N)C(=O)OCC` [Compound IIb, theanine ethyl ester], the IC50 in data set [1] came to 400 µM. The IC50 with human neuroma cells D54 was 300 µM. In data set [2], the inhibition in vivo at 60 mg/kg came out at 43.2% and the inhibition in vivo at 90 mg/kg was 46.8%.

As for `CCNC(=O)CC[C@@H](NC(=O)c1cc2cc(Br)ccc2oc1=O)C(=O)OCC` [Compound Id, (R)-2-(6-Br-2-oxo-2H-benzopyran-3-carboxamido)-5-ethylamino-5-oxo-pentanoic acid ethyl ester], the IC50 in data set [1] worked out at 55 µM. For the same molecule, in the data set with human neuroma cells D54, the IC50 is 92 µM. In addition, in data set [2], the inhibition in vivo at 60 mg/kg was 56.6% and the inhibition in vivo at 90 mg/kg was found to be 66.9%. Further, in data set [3], the “Emission” value is 430-670 nm; the “Excitation” value is 36-610 nm. Also, the IC50 with H-Ras is under 60 µM.
